Laboratory results from PMC5736175, “Nicotinic alpha 7 receptor agonists EVP-6124 and BMS-933043, attenuate scopolamine-induced deficits in visuo-spatial paired associates learning” (PLoS ONE, 2017).
Values joined by “and” are separate entries in the source; they are usually repeats but may differ in a detail not shown here. Equal values may be shown once. “Also recorded” adds a separate entry of the source. Where a name gives a salt, the structure may show the parent alone.

Test system: scopolamine-treated cynomolgus monkeys
Test: Scopolamine-induced impairment of vsPAL task performance, treatment + scopolamine
Assay type: in vivo, cynomolgus monkeys (Macaca Fasicularis)
Experimental: Doses cited refer to the free base form of the compounds. […] All drugs were administered intramuscularly (i.m.) in a dosing volume of 0.1–0.2 ml/kg.
On days when compound testing occurred, approximately half the cohort received one dose and the remainder another dose of the same compound and therefore dose order was staggered between animals. With the exception of EVP-6124, all other compounds were tested in a single dose response study.
Cohen’s d values of >0.2, >0.5 and >0.8 are described using the conventions of small, medium, and large effects, respectively.

[1] = 0.3 mg/kg + scopolamine vs vehicle+scopolamine, eventual accuracy, 4-stimuli
[2] = Donepezil 0.03 mg/kg + Scopolamine, group MEAN of 6 animals
[3] = Donepezil 0.03 mg/kg + Scopolamine, individual animals
[4] = Donepezil 0.1 mg/kg + Scopolamine, group MEAN of 6 animals
[5] = Donepezil 0.1 mg/kg + Scopolamine, individual animals
[6] = Donepezil 0.3 mg/kg + Scopolamine, group MEAN (one animal without value)
[7] = Donepezil 0.3 mg/kg + Scopolamine, group MEAN of 6 animals
[8] = Donepezil 0.3 mg/kg + Scopolamine, individual animals
[9] = all doses of the study, for EVP-6124 study (1)
[10] = compound 0.03 mg/kg i.m. + Scopolamine
[11] = compound 0.10 mg/kg i.m. + Scopolamine
[12] = compound 0.30 mg/kg i.m. + Scopolamine

## COc1cc2c(cc1OC)C(=O)C(CC1CCN(Cc3ccccc3)CC1)C2 (centres unmarked) [Donepezil, Donepezil hydrochloride]
[1]
  Cohen's d: 1.2 and 1.199
  effect r: 0.514
0.3 mg/kg i.m., 4-stimuli condition
  effect on scopolamine-induced impairment of eventual accuracy: significantly ameliorated; also recorded: significantly reversed
0.3 mpk + scop, eventual correct, 4-stimuli condition
  mean (cohen's d calculations): 68.7
[2]
  % Completion: 79.4%
  Average Response Latency: 2339.5 ms
  Eventual Correct, 2 Stimuli: 100.0%
  Eventual Correct, 3 Stimuli: 86.7%
  Eventual Correct, 4 Stimuli: 42.1%
  Eventual Correct, Overall Mean % Correct: 76.2%
  Initial Correct, 3 Stimuli: 58.3%
  Initial Correct, 4 Stimuli: 16.7%
  Initial Correct, Overall Mean % Correct: 52.2%
  Initial correct, 2 Stimuli: 81.7%
[3]
  % Completion: 76.8% and 57.3% and 85.4% and 84.6% and 100.0% and 72.4%
  Average Response Latency: 2796.9 ms and 1893.7 ms and 2469.8 ms and 2357.9 ms and 2353.0 ms
  Eventual Correct, 2 Stimuli: 100.0%
  Eventual Correct, 3 Stimuli: 90.0% and 80.0% and 50.0% and 100.0%
  Eventual Correct, 4 Stimuli: 30.0% and 12.5% and 0.0% and 80.0% and 70.0% and 60.0%
  Eventual Correct, Overall Mean % Correct: 73.3% and 64.2% and 50.0% and 93.3% and 90.0% and 86.7%
  Initial Correct, 3 Stimuli: 50.0% and 70.0% and 40.0% and 60.0% and 90.0%
  Initial Correct, 4 Stimuli: 10.0% and 0.0% and 30.0%
  Initial Correct, Overall Mean % Correct: 50.0% and 56.7% and 36.7% and 46.7% and 73.3%
  Initial correct, 2 Stimuli: 90.0% and 100.0% and 70.0% and 60.0%
[4]
  % Completion: 80.6%
  Average Response Latency: 2361.5 ms
  Eventual Correct, 2 Stimuli: 98.3%
  Eventual Correct, 3 Stimuli: 90.0%
  Eventual Correct, 4 Stimuli: 50.0%
  Eventual Correct, Overall Mean % Correct: 79.4%
  Initial Correct, 3 Stimuli: 63.3%
  Initial Correct, 4 Stimuli: 30.0%
  Initial Correct, Overall Mean % Correct: 57.2%
  Initial correct, 2 Stimuli: 78.3%
[5]
  % Completion: 70.7% and 75.0% and 77.6% and 100.0% and 96.4% and 63.8%
  Average Response Latency: 2305.7 ms and 2751.0 ms and 1701.8 ms and 2272.3 ms and 2849.3 ms and 2289.1 ms
  Eventual Correct, 2 Stimuli: 90.0% and 100.0%
  Eventual Correct, 3 Stimuli: 60.0% and 90.0% and 100.0%
  Eventual Correct, 4 Stimuli: 0.0% and 90.0% and 50.0% and 60.0%
  Eventual Correct, Overall Mean % Correct: 50.0% and 93.3% and 80.0% and 83.3% and 86.7%
  Initial Correct, 3 Stimuli: 90.0% and 80.0% and 40.0% and 20.0% and 70.0%
  Initial Correct, 4 Stimuli: 50.0% and 30.0% and 0.0% and 40.0%
  Initial Correct, Overall Mean % Correct: 76.7% and 70.0% and 36.7% and 63.3% and 33.3%
  Initial correct, 2 Stimuli: 90.0% and 100.0% and 70.0% and 50.0%
[6]
  Eventual Correct, 4 Stimuli: 68.7%
  Initial Correct, 4 Stimuli: 28.2%
[7]
  Average Response Latency: 2371.0 ms
  Eventual Correct, 2 Stimuli: 98.3%
  Eventual Correct, 3 Stimuli: 85.0%
  Eventual Correct, Overall Mean % Correct: 84.9%
  Initial Correct, 3 Stimuli: 63.3%
  Initial Correct, Overall Mean % Correct: 58.4%
  Initial correct, 2 Stimuli: 80.0%
[8]
  % Completion: 41.3% and 69.1% and 98.4% and 98.6% and 98.3% and 61.0%
  Average Response Latency: 2379.3 ms and 1959.4 ms and 2184.7 ms and 2330.5 ms and 2840.5 ms and 2531.9 ms
  Eventual Correct, 2 Stimuli: 100.0% and 90.0%
  Eventual Correct, 3 Stimuli: 70.0% and 90.0% and 100.0%
  Eventual Correct, 4 Stimuli: 60.0% and 80.0% and 90.0% and 33.3%
  Eventual Correct, Overall Mean % Correct: 85.0% and 83.3% and 93.3% and 90.0% and 86.7% and 71.1%
  Initial Correct, 3 Stimuli: 50.0% and 80.0% and 70.0% and 60.0%
  Initial Correct, 4 Stimuli: 20.0% and 50.0% and 40.0% and 11.1%
  Initial Correct, Overall Mean % Correct: 50.0% and 66.7% and 53.3% and 63.3% and 50.4%
  Initial correct, 2 Stimuli: 50.0% and 100.0% and 80.0% and 90.0%
All doses of the study
  Holm-Sidak Post-Hoc, Treatment+Scopolamine differs from Vehicle+Scopolamine: percent correct on initial attempt, 3-stimuli: n.s.
[9]
  Holm-Sidak Post-Hoc, Treatment+Scopolamine differs from Vehicle+Scopolamine: Choice Response Latency: n.s.
  Holm-Sidak Post-Hoc, Treatment+Scopolamine differs from Vehicle+Scopolamine: Percent Task Completed: n.s.
  Holm-Sidak Post-Hoc, Treatment+Scopolamine differs from Vehicle+Scopolamine: percent correct on initial attempt, 2-stimuli: n.s.
  Holm-Sidak Post-Hoc, Treatment+Scopolamine differs from Vehicle+Scopolamine: percent correct on initial attempt, 4 stimuli: n.s.
[10]
  Percent Correct on Initial Attempt (SEM), 2 stimuli: 81.7% (7.0%)
  Percent Correct on Initial Attempt (SEM), 3 stimuli: 58.3% (7.9%)
  Percent Correct on Initial Attempt (SEM), 4 stimuli: 16.7% (6.1%)
[11]
  Percent Correct on Initial Attempt (SEM), 2 stimuli: 78.3% (7.5%)
  Percent Correct on Initial Attempt (SEM), 3 stimuli: 63.3% (11.2%)
  Percent Correct on Initial Attempt (SEM), 4 stimuli: 30.0% (6.8%)
[12]
  Percent Correct on Initial Attempt (SEM), 2 stimuli: 80.0% (6.8%)
  Percent Correct on Initial Attempt (SEM), 3 stimuli: 63.3% (4.2%)
  Percent Correct on Initial Attempt (SEM), 4 stimuli: 28.2% (7.2%)
